The values below come from publication PMC8453745, “Human Mass Balance and Metabolite Profiling of [^14C]‐Pamiparib, a Poly (ADP‐Ribose) Polymerase Inhibitor, in Patients With Advanced Cancer” (Clinical Pharmacology in Drug Development, 2021).

Several values for one entry are separate records, joined by “and”; a condition that tells them apart may be missing. Equal entries are not always repeated.

Details of series [1]: method as in PMID 32652442. The settings on record: after oral administration in mice; cited from earlier work.
Series [2] relates to human liver microsomes (HLMs). The series is described as follows: metabolic stability in human liver microsomes. The format is in vitro ADME. The following applies: 90‐minute incubation in HLMs without CYP inhibitors. The protocol: (§1) Metabolic stability in human liver microsomes (HLMs) and cytochrome P450 (CYP450) phenotyping assays were conducted in 3D BioOptima (Suzhou, China) using validated methodology, [13] to determine the intrinsic clearance and enzymes responsible for metabolism of pamiparib. HLMs for microsome stability was from BD Biosciences (Woburn, New York). For phenotyping, HLMs and recombinant P450 (rCYP) were from Corning (Woburn, New York). Pamiparib (1 μM) was incubated with pooled HLM (0.5 mg/mL), NADPH (1 mM), and MgCl2 (3 mM) terminated at 0, 5, 15, 30, 60, and 90 minutes. The intrinsic clearance was calculated as 0.693/(t1/2 × HLM concentration), where t1/2 is the half‐life of pamiparib determined in HLMs. For phenotyping in HLMs, pamiparib (1 μM) was incubated in the absence or presence of isoform‐selective inhibitors: 0.2 μM α‐naphthoflavone for CYP1A2, 2 μM clopidogrel for CYP2B6, 16 μM montelukast for CYP2C8, 10 μM sulfaphenazole for CYP2C9, 30 μM nootkatone for CYP2C19, 2 μM quinidine for CYP2D6, and 1 μM ketoconazole for CYP3A. The following isoform‐selective probe substrates served as positive controls: 40 μM phenacetin for CYP1A2, 100 μM bupropion for CYP2B6, 2 μM amodiaquine for CYP2C8, 5 μM diclofenac for CYP2C9, 40 μM S‐mephenytoin for CYP2C19, 5 μM dextromethorphan for CYP2D6, and 2 μM midazolam for CYP3A4. […] Pamiparib (1 μM) was also incubated with rCYP1A2, rCYP2B6, rCYP2C8, rCYP2C9, rCYP2C19, rCYP2D6, or rCYP3A4 (50 pmol/mL) for 90 minutes with NADPH and MgCl2. The following isoform‐selective probe substrates served as positive controls: 1 μM phenacetin for CYP1A2, 2 μM bupropion for CYP2B6, 2 μM amodiaquine for CYP2C8, 2 μM diclofenac for CYP2C9, 10 μM S‐mephenytoin for CYP2C19, 1 μM dextromethorphan for CYP2D6, and 20 μM midazolam for CYP3A4. Pamiparib, M1, and M2 were analyzed by LC‐MS/MS.
For orientation: Microsomes from liver hold many membrane-bound enzymes, among them those of drug oxidation.

Series [3] is described as follows: metabolic stability in human liver microsomes. The format is in vitro ADME. The following applies: human, pooled human liver microsomes, 1 μM, 0.5 mg/mL HLM, NADPH. The protocol:
as §1

A short description of series [4]: metabolite profiling in plasma (radioprofiling, LC‐MS). The series is classed as in vivo, human. As to the method:
(§2) Total radioactivity concentrations of [^14C]‐pamiparib in whole blood, plasma, urine, and feces were determined by liquid scintillation counting (LSC). Radioactivity in each sample was measured for 5 minutes using a Packard Tri‐Carb liquid scintillation counter model 2100TR, 2900TR, or 3100TR (Canberra Packard, Pangbourne, Berks, Australia) with the facilities for computing quench‐corrected disintegrations per minute. Metabolite identification in plasma, urine, and feces was conducted by LC‐MS. Quantitation of the metabolites present in plasma, urine, and feces was based on the profiles of radioactivity. The limit of quantitation for radioactivity in plasma, urine, and feces was set at 1% of each chromatographic analysis (run) and 10 counts per minute (cpm) peak height; therefore, radioactive peaks that were <1% of the total run or <10 cpm peak height were reported as not detected. In addition, pamiparib and standards were reported, regardless of the percentage of run or peak height.
For metabolite profiling in plasma, ≈1.9 to 2.8 g of each plasma sample collected 0.5, 1, 2, 6, 12, and 24 hours postdose was extracted twice with 6 mL of 0.1% formic acid in acetonitrile (ACN). Duplicate aliquots were analyzed by LSC to determine extraction recoveries, which ranged from 77.4% to 98.5%. The combined supernatants were evaporated to dryness under nitrogen and reconstituted in 2:1 reverse osmosis water:methanol (MeOH). Duplicate aliquots were analyzed by LSC to determine reconstitution recoveries, which ranged from 89.3% to 115%. The reconstituted samples were analyzed by LC‐MS, with eluent fractions collected at 10‐second intervals into 96‐well plates containing solid scintillant. Radioactivity in each well was determined using TopCount analysis, and radiochemical profiles were generated based on radioactivity counts.
Metabolic profiling was performed on plasma, urine, and feces samples using LC‐MS. Shimadzu/Nexera LC‐30AD pumps and Shimadzu/Prominence DGU‐20A5R degasser were used with Shimadzu/Prominence controller CBM‐20A. The high‐pressure liquid chromatograph (HPLC) was equipped with an autoinjector (Shimadzu/Nexera SIL‐30ACMP) set at 10°C and a fraction collector (Leap Technologies PAL HTC‐xt) set at 15°C. Thermo Fisher Scientific Q Exactive was the mass spectrometer system.

In series [5] the test system is BRCA1 mutant mouse xenograft. The following applies: BRCA1 mutant mouse xenograft model; cited from earlier work.
For the next series, the system named is CYP3A. The series is described as follows: CYP450 phenotyping in HLMs with CYP3A inhibitor ketoconazole. The format is in vitro ADME, human. The following applies: 90‐minute HLM incubation with CYP3A4 inhibitor ketoconazole (1 μM). As to the method:
(§3) Metabolic stability in human liver microsomes (HLMs) and cytochrome P450 (CYP450) phenotyping assays were conducted in 3D BioOptima (Suzhou, China) using validated methodology, [13] to determine the intrinsic clearance and enzymes responsible for metabolism of pamiparib. HLMs for microsome stability was from BD Biosciences (Woburn, New York). For phenotyping, HLMs and recombinant P450 (rCYP) were from Corning (Woburn, New York). Pamiparib (1 μM) was incubated with pooled HLM (0.5 mg/mL), NADPH (1 mM), and MgCl2 (3 mM) terminated at 0, 5, 15, 30, 60, and 90 minutes. The intrinsic clearance was calculated as 0.693/(t1/2 × HLM concentration), where t1/2 is the half‐life of pamiparib determined in HLMs. For phenotyping in HLMs, pamiparib (1 μM) was incubated in the absence or presence of isoform‐selective inhibitors: 0.2 μM α‐naphthoflavone for CYP1A2, 2 μM clopidogrel for CYP2B6, 16 μM montelukast for CYP2C8, 10 μM sulfaphenazole for CYP2C9, 30 μM nootkatone for CYP2C19, 2 μM quinidine for CYP2D6, and 1 μM ketoconazole for CYP3A. The following isoform‐selective probe substrates served as positive controls: 40 μM phenacetin for CYP1A2, 100 μM bupropion for CYP2B6, 2 μM amodiaquine for CYP2C8, 5 μM diclofenac for CYP2C9, 40 μM S‐mephenytoin for CYP2C19, 5 μM dextromethorphan for CYP2D6, and 2 μM midazolam for CYP3A4. […] Pamiparib, M1, and M2 were analyzed by LC‐MS/MS.

A further series deals with T1, CYP2D6 (Homo sapiens, UniProt P10635).
T1 construct: tissue Corning (Woburn, New York); host or cells: pooled human liver microsomes
T1 sequence (P10635 whole entry): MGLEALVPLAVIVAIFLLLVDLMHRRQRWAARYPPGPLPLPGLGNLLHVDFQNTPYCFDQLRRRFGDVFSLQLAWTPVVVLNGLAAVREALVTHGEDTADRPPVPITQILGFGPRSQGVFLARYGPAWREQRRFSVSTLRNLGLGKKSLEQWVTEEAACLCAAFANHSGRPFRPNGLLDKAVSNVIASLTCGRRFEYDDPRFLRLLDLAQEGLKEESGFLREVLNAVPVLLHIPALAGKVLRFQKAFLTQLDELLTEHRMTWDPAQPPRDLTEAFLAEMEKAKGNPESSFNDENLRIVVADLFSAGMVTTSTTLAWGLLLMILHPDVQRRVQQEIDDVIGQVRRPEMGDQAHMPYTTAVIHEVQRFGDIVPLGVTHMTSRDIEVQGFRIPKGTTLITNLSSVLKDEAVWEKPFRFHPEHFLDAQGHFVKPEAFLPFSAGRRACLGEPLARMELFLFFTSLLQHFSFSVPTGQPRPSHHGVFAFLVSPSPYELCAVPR
The series is described as follows: CYP450 phenotyping in HLMs with CYP2D6 inhibitor quinidine. The following applies: HLM incubation. The format is in vitro ADME. As to the method:
as §3

Series [6] in a line: metabolite profiling in pooled feces (radioprofiling, LC‐MS). The format is in vivo, human. The following applies: pooled feces. As to the method: as §2
Portions of fecal homogenates (about 200‐500 mg) were subjected to combustion analysis prior to LSC. For metabolite profiling, feces samples collected 0‐24, 24‐48, 48‐72, 72‐96, and 96‐120 hours postdose were pooled by individual patient to generate 0‐ to 120‐hour pooled samples including 0.5% of each sample by weight. Feces were pooled per patient (if required) according to the appropriate 24‐hour collection period. The samples were homogenized in deionized water, avoiding excessive dilution (data on file). The radioactivity in each pooled sample was determined by LSC. The total amount of feces collected was factored into the recovery calculation. Approximately 1.6 to 2.7 g of each pooled feces sample was extracted twice with 6 mL of 0.1% formic acid in ACN. […] The combined supernatants were evaporated to dryness under nitrogen and reconstituted in 300 μL of MeOH. […] The reconstituted samples were analyzed by LC‐MS, with eluent fractions collected, and radiochemical profiles were generated based on radioactivity counts. […]

Usually half-life stands for the time in which the quantity being followed falls by half. Low readings indicate rapid decline, high ones slow decline. As for `C[C@]12CCCN1CC1=NNC(=O)c3cc(F)cc4[nH]c2c1c34` [Pamiparib], the brain penetrance entry in series [1] is listed as “brain penetrance”. In addition, the pamiparib remaining in series [2] is 45.0%; in the series with CYP3A it was 63.1%. This compound gave a half-life at 1 μM in series [3] of 3 h. Moreover, the microsomal CLint at 1 μM in series [3] (read-out: intrinsic clearance in HLM) was found to be 7.9 µL/min/mg. The “AUC0‐t, geometric mean” value in series [4] (based on high‐performance liquid chromatography‐liquid scintillation counting) came to 19670 ngEq·h/mL. In addition, in series [4] (based on high‐performance liquid chromatography‐liquid solid chromatography), the “Cmax, geometric mean” value worked out at 1737 ngEq/mL. In addition, the “mean percent of total radioactivity exposure in plasma (AUC0‐24h)” value in series [4] (plasma, mean of patients) was 67.2% ± 10.2% and 67.2% and 67%. Also, the “Percent of Total Radioactivity Concentration (AUC0‐24h)” value in series [4] (plasma, patient S101) came to 78.0%; in series [4] (plasma, patient S102), 72.6%; in series [4] (plasma, patient S103), 63.2%; in series [4] (plasma, patient S104), 55.0%. Further, the antitumor activity result in series [5] is recorded as “strong antitumor activity”. Moreover, the “potency compared with olaparib” value in series [5] is “more potent than olaparib”. Moreover, the “effect of CYP2D6 inhibitor quinidine on pamiparib metabolism” value on CYP2D6 is “minimal effect”. Besides, the “dose quantified in feces” value in series [6] was 17.5 % of the dose.
